Assay results published in publication PMC3706558 (Biochemistry, 2013).

How the values were obtained:
[1] = target: T1, Mtb ICDH-1 (Mycobacterium tuberculosis, UniProt P9WKL1); assay: biochemical
[2] = target: T1, Mtb ICDH-1; assay: NADPH formation at […] nm, dead-end inhibition; type: biochemical
[3] = test system: NC(=O)c1ccc[n+]([C@@H]2O[C@H](COP(=O)(O)OP(=O)(O)OC[C@H]3O[C@@H](n4cnc5c(N)ncnc54)[C@H](OP(=O)(O)O)[C@@H]3O)[C@@H](O)[C@H]2O)c1; assay: purified protein; settings: pH 7.5

T1 sequence (P9WKL1 whole entry): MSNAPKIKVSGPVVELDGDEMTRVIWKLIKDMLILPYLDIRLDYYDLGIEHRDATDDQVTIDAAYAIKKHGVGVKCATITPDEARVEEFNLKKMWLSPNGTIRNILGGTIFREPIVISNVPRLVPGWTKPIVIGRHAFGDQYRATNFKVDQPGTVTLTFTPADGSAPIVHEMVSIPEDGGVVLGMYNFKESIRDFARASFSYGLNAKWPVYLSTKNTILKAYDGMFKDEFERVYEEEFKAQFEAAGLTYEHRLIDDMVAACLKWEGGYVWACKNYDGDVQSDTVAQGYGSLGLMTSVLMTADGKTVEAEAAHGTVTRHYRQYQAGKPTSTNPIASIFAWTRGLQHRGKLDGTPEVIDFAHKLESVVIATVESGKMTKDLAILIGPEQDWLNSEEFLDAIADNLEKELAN

Molecule | Ki [1] [mM] | other results
O=C(O)CCC(=O)C(=O)O [αKG] | 22 ± 6 | 
O=C(O)C[C@H](O)C(=O)O [malate] |  | Ki [2]: 80 ± 15 mM
Mtb ICDH-1 (Mycobacterium tuberculosis H37Rv) |  | Km [3]: 15 ± 3 µM
NC(=O)C1=CN([C@@H]2O[C@H](COP(=O)(O)OP(=O)(O)OC[C@H]3O[C@@H](n4cnc5c(N)ncnc54)[C@H](OP(=O)(O)O)[C@@H]3O)[C@@H](O)[C@H]2O)C=CC1 [NADPH] | 0.006 ± 0.002 | 
